Source: US6586437B2, “(S)-hydroxynefazodone antipsychotic therapy” (Sepracor Inc., priority 1999, dated 2003)
Where a name gives a salt, the structure may show the parent alone.

Tests used:
[1] = target: T1, norepinephrine uptake, rat hypothalamus synaptosomes (Rattus norvegicus, UniProt Q9WTR4); experiment: Norepinephrine uptake functional assay (synaptosomes); format: biochemical, male Wistar rat; conditions: [3H]-norepinephrine, read-out: Monoamine Neuronal Transport IC50, NE uptake
T1 construct: synaptosomes isolated at Cerep in a 0.32 M sucrose buffer from a male Wistar rat hypothalamus; from tissue; host or cells: male Wistar rat hypothalamus synaptosomes
T1 sequence (Q9WTR4 1-597): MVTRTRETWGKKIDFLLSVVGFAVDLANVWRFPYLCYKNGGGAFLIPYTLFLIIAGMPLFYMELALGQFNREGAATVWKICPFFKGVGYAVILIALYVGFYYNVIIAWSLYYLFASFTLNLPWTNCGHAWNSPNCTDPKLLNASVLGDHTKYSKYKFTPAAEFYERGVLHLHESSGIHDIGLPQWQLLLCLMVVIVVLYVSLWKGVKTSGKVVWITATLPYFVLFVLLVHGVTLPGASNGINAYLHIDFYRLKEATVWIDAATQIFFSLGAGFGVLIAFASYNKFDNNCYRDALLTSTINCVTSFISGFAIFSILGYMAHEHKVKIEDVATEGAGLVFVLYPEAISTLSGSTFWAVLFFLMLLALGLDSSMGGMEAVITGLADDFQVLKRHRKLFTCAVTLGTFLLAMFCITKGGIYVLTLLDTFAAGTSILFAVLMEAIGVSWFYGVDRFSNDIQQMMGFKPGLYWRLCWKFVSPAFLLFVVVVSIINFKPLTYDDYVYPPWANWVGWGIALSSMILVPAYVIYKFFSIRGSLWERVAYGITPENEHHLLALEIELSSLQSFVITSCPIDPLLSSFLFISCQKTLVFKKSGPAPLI
Procedure: Norepinephrine Uptake Functional Assay
Characterization of norepinephrine uptake is performed using synaptosomes isolated at Cerep in a 0.32 M sucrose buffer from a male Wistar rat hypothalamus. The uptake of radiolabeled norepinephrine by synaptosomes (100 μg of proteins/point) is allowed by incubating them for 20 minutes at 37° C. in presence of test compounds and [3H]-norepinephrine (0.1 μCi/point). The experiment is performed in a deep well.
Synaptosomes and [3H]-norepinephrine are prepared in a Krebs buffer pH 7.4 containing 25 mM NaHCO3, 11 mM glucose and 50 μM ascorbic acid. This incubation buffer is oxygenated during 5 minutes before incubation. Basal control is incubated for 20 minutes at 4° C. in order to avoid any uptake. Following this incubation the uptake is stopped by filtration through an “unifilter 96-wells GFB ” Packard plate washed with Krebs buffer containing 25 mM NaHCO3 in order to eliminate the free [3H]-norepinephrine. The radioactivity associated to the synaptosomes retained onto the unifilter corresponding to the uptake is then measured with a microplate scintillation counter Topcount, Packard using a scintillation liquid microscint 0, Packard.
[See Perovics and Müller, op.cit. (1995).]

[2] = target: α1 Receptor; experiment: α1 receptor binding; conditions: read-out: α1 Receptor Binding IC50, Alpha1
[3] = cited from earlier work
[4] = system: alpha1-adrenergic receptors; conditions: cited from earlier work
[5] = system: cholinergic receptors; conditions: in vitro binding studies; cited from earlier work
[6] = system: dopaminergic receptors; conditions: in vitro binding studies; cited from earlier work
[7] = system: alpha2 adrenergic receptors; conditions: in vitro binding studies; cited from earlier work
[8] = system: beta adrenergic receptors; conditions: in vitro binding studies; cited from earlier work
[9] = system: benzodiazepine receptors; conditions: in vitro binding studies; cited from earlier work
[10] = target: T2, 5-HT1A receptors (Homo sapiens, UniProt P08908); conditions: in vitro binding studies; cited from earlier work
T2 sequence (P08908 1-422): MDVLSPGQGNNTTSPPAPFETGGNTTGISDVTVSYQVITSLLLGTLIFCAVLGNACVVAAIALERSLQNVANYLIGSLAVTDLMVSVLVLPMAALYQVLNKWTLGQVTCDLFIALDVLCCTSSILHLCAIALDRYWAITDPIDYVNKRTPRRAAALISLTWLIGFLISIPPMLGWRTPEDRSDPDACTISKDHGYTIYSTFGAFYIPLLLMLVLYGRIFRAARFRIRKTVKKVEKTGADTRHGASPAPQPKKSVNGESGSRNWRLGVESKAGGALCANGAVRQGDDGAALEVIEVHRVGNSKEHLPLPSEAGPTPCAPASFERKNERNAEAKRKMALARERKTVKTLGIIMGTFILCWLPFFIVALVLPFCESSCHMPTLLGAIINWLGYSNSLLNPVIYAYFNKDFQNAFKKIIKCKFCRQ

Structure (SMILES): CC(O)c1nn(CCCN2CCN(c3cccc(Cl)c3)CC2)c(=O)n1CCOc1ccccc1 (racemic) [(RS)—OH, 2-[3-[4-(3-chlorophenyl)1-piperazinyl]propyl]-5-(1-hydroxyethyl)-2,4-dihydro-4-(phenoxyethyl)-3H-1,2,4-triazol-3-one]
- IC50 [1]: 1000 nM
- IC50 [2]: 381 nM

Structure (SMILES): CCc1nn(CCCN2CCN(c3cccc(Cl)c3)CC2)c(=O)n1CCOc1ccccc1 [Nefazodone hydrochloride]
- absolute bioavailability ([3]; low and variable because of extensive metabolism): about 20%

Structure (SMILES): CCc1nn(CCCN2CCN(c3cccc(Cl)c3)CC2)c(=O)n1CCOc1ccccc1 [Nefazodone]
- effect on alpha1-adrenergic receptors [4]: antagonize
- affinity for cholinergic receptors [5]: no significant affinity
- half-life ([3]; in vivo): 2 to 4 h
- time of peak plasma concentrations ([3]; in vivo): about one
- affinity for dopaminergic receptors [6]: no significant affinity
- affinity for alpha2 adrenergic receptors [7]: no significant affinity
- IC50 [2]: 306 nM
- affinity for beta adrenergic receptors [8]: no significant affinity
- affinity for benzodiazepine receptors [9]: no significant affinity
- affinity for 5-HT1A receptors [10]: no significant affinity

Structure (SMILES): C[C@H](O)c1nn(CCCN2CCN(c3cccc(Cl)c3)CC2)c(=O)n1CCOc1ccccc1 [(S)—OH, (S)-2-{3-[4-(3-Chlorophenyl)-1-piperazinyl]propyl}-4-(2-phenoxyethyl)-5-[1-(hydroxy)-ethyl]-2,4-dihydro-[1,2,4]triazol-3-one]
- IC50 [1]: 1500 nM
- IC50 [2]: 419 nM

Structure (SMILES): C[C@@H](O)c1nn(CCCN2CCN(c3cccc(Cl)c3)CC2)c(=O)n1CCOc1ccccc1 [(R)—OH, (R)-Hydroxynefazodone hydrochloride]
- IC50 [1]: 1200 nM
- IC50 [2]: 367 nM
